Tested on: CX-1 Human Colon Carcinoma
Experiment: Clonogenic dye screening assay, CX-1 cells (IC50)
Type: cell-based
Set-up: CX: unit not given here
Details: for CX (IC50 in the CX-1 cell line): 3 hrs treatment, colonies after 7-10 days, unit from method b117-118; for CV/CX (selectivity, kill ratio): ratio of IC50 in normal CV-1 line to IC50 in carcinoma CX-1 line; for CX: CX-1 cells; for CV/CX: selectivity ratio of IC50 values; for CV/C: selectivity ratio, value of 1 where dye inactive
Description: CX-1 is a cancerous human colon adenocarcinoma cell line. CV-1 is a non-cancerous control, which is a kidney epithelial cell line from an African green monkey. IC50 is the dye concentration at which 50% of the cells are killed. Selectivity or kill ratio is defined as the ratio of […] at IC50 for both CX-1 and CV-1. A ratio with a high number indicates a high selectivity.
The dyes were screened in two cell lines. CX-1 is a human colon adenocarcinoma cell line. CV-1 is a kidney epithelial cell line from an African green monkey. CV-1 was used as a reference because no normal human epithelial cell line is available for clonogenic assay.
In the initial screen, dyes were examined at six different concentrations to generate a dose response curve. An IC50 value, the concentration at which 50% of the cells are killed, was then calculated. Initially, a dye concentration of 1.0 μg/mL was the highest examined for the CX-1 cell line and 0.005 μg/mL was the lower limit. The corresponding limits on the CV-1 cell line were […].
The screening procedure used a response curve that was determined from eight dye concentrations. The upper and lower limits of CX-1 were 0.32 and 0.0015 μg/mL, respectively, and the corresponding revised limits on CV-1 were 3.2 and 0.025 μg/mL. The screening results were reported by assigning an IC50 value to each dye for the CV-1 and CX-1 cell lines. These values will be referred to herein simply as CV and CX. The most desirable result would be to have a dye that was highly toxic to carcinoma cells but nontoxic to ‘normal’ cells. One measure of this type of selectivity is the ratio of the IC50's in the normal cell line to that in the carcinoma line, CV/CX.
Compounds are screened via an in vitro assay. CV-1 and CX-1 cells are seeded into separate assay plates. The plates are treated with varying concentrations of test compounds, rinsed, and colonies allowed to grow. IC50's are determined and drugs evaluated based on their selectivity and toxicity. Assay Steps: • I. Seeding Cells • II. Weighing • III. Preparation of Solution • IV. Treatment • V. Rinsing and Feeding • VI. Fixing • VII. IC50 Determination I. Seeding Cells
The cells should be seeded 16-30 hours before treatment. The media for CV-1 cells is DME+5% calf serum +5% Nuserum. The media for CX-1 cells is RPMI/DME (50/50)+5% calf serum +5% Nuserum.
(c) number of cells based on 2000 CX-1 cells/well and 1000 CV-1 cells/well. NOTE: Always make enough cell suspension for 1 extra plate to allow for volume loss during transfers.
• (a) For CV-1: 256 ug/ml-256 ul of 1 mg/ml stock +744 ul DMSO • (b) For CX-1: 25.6 ug/ml-100 ul of 256 ug/ml+900 ul DMSO IV. Treatment • 1. Each plate is treated with 4 test compounds, one positive control and one negative control. • 2. Serial dilutions of the compounds are made in the following way:
2 multi-well pipetters are used. One is set for 10 ul and one for 200 ul. Each is equipped with 6 tips spaced such that they fit into the 6 rows of a plate. 390 ul of media is added to the first column of each plate. 10 ul each of 4 compound solutions, a positive and a negative control are taken up and put into the first column of wells. The 200 ul pipetter is then placed in the same wells, pipetted up and down 3 times and two 200 ul aliquots are moved to the next column of wells. This column is pipetted up and down 3 times and 400 ul moved to column 3, etc. The final 400 ul excess from column 8 is discarded.
• 3. Label the plates along the front, each row −1 compound. • 4. Incubate the plates at 37° C. for 3 hrs. V. Rinsing • 1. Prepare several bottles of CX-1 and CV-1 media. • 2. Check for precipitate in first column of each plate and note. • 3. Starting with the plates treated first, rinse several plates at a time by aspirating the treatments and refilling each well with 0.5-1.0 ml of the rinse media. Aspirate and refill 2 more times for a total of 3 rinses. • 4.

[1] = Table XXI, oxathiacarbocyanine nitrogen substituents
[2] = Table XVII, benzotellurazole derivatives

Structure (SMILES)	CX (IC50 in the CX-1 cell line)	CV/CX (selectivity, kill ratio)	other results
CCN1/C(=C/C=C/c2sc3ccccc3[n+]2CC)Oc2cc(C)c(C)cc21 [drawing 44|E|H|5,6-Me]		>20.0	
CCN1/C(=C\C=C\c2[se]c3ccccc3[n+]2CC)Sc2cc(O)c(O)cc21 [drawing 46|Se|S|H|5,6-OH]	0.30 µg/mL	33.3	
CCN1/C(=C/C=C/c2sc3ccccc3[n+]2CC)Oc2ccc(C)cc21 [drawing 44|E|H|5-Me]		4.0	
CCN1/C(=C/C=C/c2sc3ccccc3[n+]2CC(N)=O)Oc2ccccc21 [drawing 37|CC(═O)N|Et]		>10.0	
CCN1/C(=C/C=C/c2sc3cc(C)c(C)cc3[n+]2CC)Oc2ccccc21 [drawing 44|E|5,6-Me|H]		>20.0	
CC[n+]1c(/C=C/C=C2\[Te]c3ccc4ccccc4c3N2C)sc2ccccc21 [naphtho/1,2/tellurazole]			CX (Table XVI, unsymmetrical dyes): 0.10; CV/CX (Table XVI): 3.0
CCN1C(=C/C=C/c2sc3ccccc3[n+]2C)C=Cc2ccccc21 [Dye 2-quinoline]			CX (Table XVI, unsymmetrical dyes): <0.005; CV/CX (Table XVI): >20.0
CCN1/C(=C/C=C/c2sc3ccccc3[n+]2CCNS(=O)(=O)c2ccc(C)cc2)Oc2ccccc21 [R1=CCNS02Ph-4C, R2=Et]			CX [1]: 0.3; CV/C (Table XXI): 26.7
CCN1/C(=C\C=C\c2sc3ccccc3[n+]2CC)Oc2ccc(Cl)cc21 [drawing 44|Et|H|5-Cl]		27.3	
CC[n+]1c(/C=C/C=C2\Oc3ccccc3N2CC(=O)c2ccccc2)sc2ccccc21 [R1=Et, R2=C(C═O)Ph]			CX [1]: 0.8; CV/C (Table XXI): 3.7
CCC(=Cc1sc2ccccc2[n+]1CC)C=C1Sc2ccccc2N1CC [drawing 38|E|H|Et|H]		10.0	
CCN(CC)C(=O)C[n+]1c(/C=C/C=C2\Oc3ccccc3N2CC)sc2ccccc21 [R1=CC(═0)N(Et)2, R2=Et]			CX [1]: 0.3; CV/C (Table XXI): >33.3
CN1C(=CC=Cc2[te]c3ccccc3[n+]2C)[Te]c2ccccc21 [R=M, X=Te, Z1=H, R2=H, Z2=H]			CX [2]: 0.30; CV/CX (Table XVII): 16.7
CCN1C=CC(=C/C=C/c2sc3ccccc3[n+]2CC)c2ccsc21 [4-thieno/2,3-b/pyridine]			CX (Table XVI, unsymmetrical dyes): 0.04; CV/CX (Table XVI): 5.0
CCN1/C(=C/C(C)=C/c2[te]c3ccc(C)cc3[n+]2CC)Sc2ccccc21 [R=E, X=S, Z1=5-Me, R2=Me, Z2=H]			CX [2]: 0.03; CV/CX (Table XVII): 26.6
CCN1/C(=C/C=C/c2sc3cc(OC)c(OC)cc3[n+]2CC)Oc2ccccc21 [drawing 44|E|5,6-MeO|H]		12.5	
CCN1/C(=C/C=C/c2sc3ccccc3[n+]2CCC(=O)N(c2ccccc2)C(C)C)Oc2ccccc21 [R1=CCC(═O)N(iPr)Ph, R2=Et]			CX [1]: 0.03; CV/C (Table XXI): 26.7
CCN1/C(=C/C=C/c2sc3ccccc3[n+]2CC)Oc2ccc(NS(=O)(=O)c3ccccc3)cc21 [drawing 44|E|H|5-NHSO2Ph]		16.7	
CCN1/C(=C/C(=C/c2[te]c3ccc(C)cc3[n+]2CC)c2ccccc2)Sc2ccccc21 [R=E, X=S, Z1=5-Me, R2=Ph, Z2=H]			CX [2]: 0.3; CV/CX (Table XVII): 30.0

More lines, main results first:

CX (IC50 in the CX-1 cell line)	Structure (SMILES)	CV/CX (selectivity, kill ratio)	other results
0.05 µg/mL	CCN1/C(=C/C=C/c2oc3ccc(-c4ccccc4)cc3[n+]2CCNC(C)=O)Sc2ccc(OC)cc21.F[B-](F)(F)F [Dye D-154]	160	
0.04 µg/mL	CCSC(=C\c1sc2ccc3ccccc3c2[n+]1CC)/C=C1\Oc2ccc3ccccc3c2N1CC [drawing 40|E|SEt]	1.25	
0.10 µg/mL	CCN1/C(=C/C=C/c2sc3ccc4ccccc4c3[n+]2CC)Sc2cc(N)ccc21 [drawing 47|NH2]	40	
0.16 µg/mL	CCN1/C(=C/C=C/c2oc3c(-c4ccccc4)cccc3[n+]2CC)Oc2c(-c3ccccc3)cccc21 [drawing 45|7-Ph|7-Ph]	5.0	
0.3 µg/mL	CCN1/C(=C/C=C/c2sc3ccc4ccccc4c3[n+]2CC)Sc2ccc3ccccc3c21 [drawing 43|E|H|H]	6.7	
>1.0 µg/mL	CCN1/C(=C\C=C\c2sc3ccccc3[n+]2CC(=O)c2ccc(O)c(O)c2)Oc2ccccc21 [drawing 37|CC(═O)Ph-3,4-OH|Et]	10.0	
0.02 µg/mL	COc1ccc2ccc3c(c2c1)N(C)/C(=C/C=C/c1sc2ccc4ccc(OC)cc4c2[n+]1C)S3 [drawing 43|M|8-MeO|8-MeO]	40.0	
0.10 µg/mL	CCN1C(=CC=Cc2oc3ccccc3[n+]2CC)Oc2ccccc21 [drawing 45|H|H]	30.0	
>.32 µg/mL	CCN1C(=CC=Cc2oc3ccc(F)cc3[n+]2CC)Oc2ccc(F)cc21 [drawing 45|5-F|5-F]	10.0	
0.16 µg/mL	CCN1C(=CC=Cc2oc3cc(C)c(Cl)cc3[n+]2CC)Oc2cc(C)c(Cl)cc21 [drawing 45|5-Cl, 6-Me|5-Cl, 6-Me]	12.5	
>0.32 µg/mL	CN1/C(=C/C=C(\C=O)c2sc3ccccc3[n+]2C)Sc2ccccc21 [drawing 38|M|CHO|H|H]	10.0	
0.1 µg/mL	CC[n+]1c(/C=C/C=C2\Oc3ccccc3N2CC(F)(F)F)sc2ccccc21 [drawing 37|Et|CC(F)3]	50.0	
0.08 µg/mL	CC1CC2=C(c3ccccc31)N(C)/C(=C/C=C/c1sc3c([n+]1C)-c1ccccc1C(C)C3)S2 (stereo not shown) [drawing 43|M|4,5-H, 5-ME|4,5-H, 5-ME]	1.25	
0.3 µg/mL	CCN1/C(=C/C=C/c2sc3ccccc3[n+]2CCS(=O)(=O)CC)Oc2ccccc21 [drawing 37|CCSO2CC|Et]	>33.3	
0.08 µg/mL	COc1cccc2c3c(ccc12)S/C(=C\C=C\c1sc2ccc4c(OC)cccc4c2[n+]1C)N3C [drawing 43|M|6-MeO|6-MeO]	10.0	
>.32 µg/mL	CCN1/C(=C\C=C\c2oc3ccc(C(F)(F)F)cc3[n+]2CC)Oc2ccc(C(F)(F)F)cc21 [drawing 45|5-CF3|5-CF3]	10.0	
0.03 µg/mL	CCN1/C(=C/C=C/c2sc3ccccc3[n+]2CCC(=O)N(c2ccccc2)C(C)C)Oc2ccccc21 [drawing 37|CCC(═0)N(iPr)Ph|Et]	26.7	
>0.32 µg/mL	CCN1/C(=C/C(=C/c2sc3ccccc3[n+]2CC)C(=S)[S-])Sc2ccccc21 [drawing 38|E|H|C(═S)S—|H]	<8.7	
0.006 µg/mL	CCN1C2=C(CCc3ccccc32)S/C1=C\C=C\c1sc2c([n+]1CC)-c1ccccc1CC2 [drawing 43|E|4,5-H|4,5-H]	8.33	
0.03 µg/mL	C=C(Br)C[n+]1c(/C=C/C=C2\Oc3ccccc3N2CC)sc2ccccc21 [drawing 37|CC(Br)═C|Et]	33.3	

From patent publication US20060099712A1, “Correlation of anti-cancer activity of dyes with redox potentials” (Eastman Kodak Company, priority 2004, published 2006)
